From US9962427B2, “Treatment of right ventricular dysfunction due to pressure overload” (OTTAWA HOSPITAL RESEARCH INSTITUTE, priority 2016, dated 2018)
Values belong to the compound of their own block, whether it stands above or below them.

What was measured:
cardiomyocytes = system: cardiomyocytes
Experimental: FIG. 7B Quantitation of cell viability analysis as shown in (A). FIG. 7C Quantification of PI cell viability FACS analysis following a 24 hrs treatment of cardiomyocytes with H2O2 in the presence or absence of hCT1. Pre-treatment with PI3K inhibitor (LY294002, 50 μM) before H2O2 was also tested.
Cardiomyocytes were treated with control serum-free media or with H2O2 (300 μM, 1 hr) to induce cell death in the presence or absence of hCT1 (0.5 nM). After 24 hrs, cells were incubated with the cell viability marker Propidium Iodide (PI) (1 μg/mL) and analyzed by FACS (Ex: 535 nm, Em: 617 nm) for viable cells; i.e. cells inside the gated region of the side scatter (SS) versus PI plot (FIG. 7A). […] The PI3K pathway is a critical feature of physiological cardiac adaptive compensation and is a key protective feature distinguishing it from pathological adaptive compensation. Therefore, cardiomyocytes were pre-treated with a PI3K inhibitor (LY294002, 50 μM) before CT-1/H2O2 treatment.

Mef2 = Mef2 luciferase reporter in primary neonatal cardiomyocytes; format: cell-based; conditions: hCT1 0.5 nM, PE 100 μM, PAC-1 25 μM
Experimental: (§1) FIGS. 6A, 6B, and 6C. Stimulation with hCT1 causes sustained activation of NF-κB and Stat3 with limited activation of Mef2, as well as limited Nfat activation; the latter two indices are distinct expression patterns from pathologic hypertrophic stimulation. FIG. 6A Primary neonatal cardiomyocytes were transfected with luciferase reporter plasmids (NF-κB or Mef2), as indicators of hypertrophic activity. Luciferase activity was measured after treatments for 24 hrs with: hCT1 (0.5 nM), PE (100 μM), or procaspase 3 activating compound 1, PAC-1 (25 μM) (left). Treatments at early timepoints (30 min, 1 hr, and 3 hr) were also conducted for hCT1 (right). FIG. 6B Primary neonatal cardiomyocytes were transfected with a luciferase reporter plasmid for Stat3. Luciferase activity was measured after treatments for 24 hrs with: hCT1 (0.5 nM), PE (100 μM), or procaspase 3 activating compound 1, PAC-1 (25 μM) (left) and at earlier time points (right). FIG. 6C Primary neonatal cardiomyocytes were infected with a luciferase-based Nfat reporter Adenovirus (Nfat-AdV). Luciferase activity was measured after treatments for 24 hrs with: hCT1 (0.5 nM), PE (100 μM), or procaspase 3 activating compound 1, PAC-1 (25 μM) (left) and at earlier time points (right)
The signaling pathways that CT-1 engages in mediating physiologic adaptive compensatory remodeling were examined. The applicants predicted that cardiomyocyte adaptive remodeling mediated by CT-1 results (in part) from the induction of a specific transcriptional program, which is distinct from that of pathologic hypertrophic response. To address this hypothesis, the applicants tested the activity of two well-known transcription factor families that have been linked to both physiologic and pathologic cardiomyocyte growth, the Mef2 (Kolodziejczyk et al. 1999 Curr Biol. 9, 1203-1206; Kim et al. 2008, J Clin Invest. 118, 124-132.) and the NF-κB family (Gordon et al. 2011, Circ Res. 108, 1122-1132). Primary neonatal cardiomyocytes were transfected with luciferase reporter plasmids (NF-κB and Mef2) to be used as a read out of transcriptional activity. Luciferase activity was determined after treatments for 24 hrs with: hCT1 (0.5 nM), PE (100 μM), or procaspase 3 activating compound 1, PAC-1 (25 μM). […] This pattern of transcription factor activation was distinct from that induced by PE and by the caspase 3 specific activating compound PAC-1.

STAT3 = STAT3 luciferase reporter in cardiomyocytes; format: cell-based; conditions: 30 minutes up to 24 hours; hCT1 0.5 nM, PE 100 μM, PAC-1 25 μM
Experimental: as §1
Moreover, it is reasonable to assume that CT-1 may moderate the activity of additional transcription factors, which further contribute to the adaptive compensation phenotype. As such, Applicants decided to test the hypothesis that STAT3 (Signal transducer and activator of transcription 3) dependent transcriptional activity is a specific determinant for CT-1 induced physiologic adaptive compensation. STAT3 phosphorylation and transcriptional activation is a response that is common to the Interleukin-6 cytokine family (of which CT-1 is a member), which is mediated through binding and activation of a JAK/gp130 (Janus kinase/[…]) receptor complex.

NFAT = NFAT luciferase reporter adenovirus (Nfat-AdV) in cardiomyocytes; format: cell-based; conditions: as early as 3 hours, up to 24 hours; PE 100 μM, PAC-1 25 μM
Experimental: as §1
Applicants tested this supposition by infecting cardiomyocytes with an NFAT luciferase reporter linked to an Adenovirus (AdV) backbone (FIG. 6C). Cardiomyocytes were infected at a […] (MOI) of 20 with Nfat-AdV for 24 hours prior to stimulation with hCT1 (0.5 nM), PE (100 μM), or procaspase 3 activating compound 1, PAC-1 (25 μM). As an initial positive control, co-infection of NFAT-AdV with activated Calcineurin-AdV (a phosphatase and potent activator of NFAT signalling) caused a significant increase in NFAT activity (n=4; *, P<0.05). […] Although the exact mechanism of inhibition is unknown, Applicant has shown CT-1 engaging a PI3K signalling pathway and it would be reasonable to postulate that phosphorylation of NFAT by CT-1/PI3K signalling would limit NFAT activity.

[1] = system: Vascular Endothelial Growth Factor—VEGF; experiment: VEGF expression by immunofluorescence in primary cardiomyocytes; format: cell-based; conditions: 24 hours; hCT1 0.5 nM, PE 100 μM, PAC-1 25 μM
Experimental: FIGS. 8A and 8B. […] FIG. 8B Microarray analysis of primary cardiomyocytes stimulated with hCT1 (0.5 nM) for 24 hours.
Applicant explored the role of CT-1 as a pro-angiogenic factor in the adaptive hypertrophic response. Physiologic cardiac adaptive compensation is associated with an increase in capillary density, whereas pathologic response is characterized by a decline or no change at all. Importantly, the compensatory vascular growth/angiogenesis that occurs during physiologic adaptive compensation is permissive for the increased workload that accompanies physiologic adaptive compensation. Despite this adaptation, little information exists regarding the mechanisms that match the demand for angiogenesis to the beneficial form of myocardial growth. The rapid in vitro and in vivo adaptive compensation in response to CT-1 supports a hypothesis that the cardiomyocyte itself may act in a paracrine fashion, to signal and promote angiogenesis. To address this conjecture, Applicant examined whether CT-1 treated primary cardiomyocytes produced vascular endothelial growth factor (VEGF), an angiogenic factor known to be produced and secreted by cardiomyocytes. Primary cardiomyocytes were incubated with control serum-free media (Ctrl, SF media) or stimulated with hCT1 (0.5 nM), PE (100 μM), or PAC-1 (25 μM) for 24 hours. Immunofluorescence was used to detect α-actinin, Vascular Endothelial Growth Factor—VEGF, and nuclei. […] Based on these observations Applicant next conducted a comparative gene expression analysis of control (non-stimulated) versus CT-1 treated (0.5 nM, 24 hours) primary cardiomyocytes, using the Affymetrix Rat gene 2.0ST array.

rats = experiment: M-mode ECHO after 2 weeks of osmotic minipump delivery in rats; format: in vivo, rat; conditions: ISO 1 mg/kg/day
Experimental: FIGS. 3A, 3B, and 3C. […] Arrows (in upper panels) point to myocardial wall (RVLW). Dotted lines (in lower panels) show inner ventricle chambers.
CT-1 was tested in vivo to determine whether its administration would induce a myocardial adaptive remodeling characteristic of physiologic compensation (FIGS. 3A, 3B, and 3C). Osmotic minipumps containing PBS control (Ctrl) or hCT1 (6 μg/kg/hr) or Isoproterenol (ISO, 1 mg/kg/day) were implanted subcutaneously in rats. ISO is a beta-adrenergic receptor agonist and continuous infusion with ISO in rats is known to induce pathological cardiac hypertrophy and cardiomyocyte damage (in both the right and left ventricles) which progresses to heart failure (Morisco et al (2001) J Mol Cell Cardiol 33:561-573 and Grimm et al (1998) Cardiovascular Research 37:91-100). After 2 weeks of treatment, M-mode ECHO analysis was used to assess myocardial structure/function (FIG. 3A). In this model, an increased right ventricle lateral wall (RVLW) thickness indicates the presence of myocardiocytes growth, and an increased ratio of the right to left ventricle internal diameters (RVID/LVID) is an indicator of pathologic hypertrophy. An increased RVLW thickness but constant or reduced RVID:LVID ratio is an indicator of adaptive compensatory RV remodeling. Both hCT1 and ISO induced a significant increase in RVLW thickness (12% and 32% fold increase, respectively) compared to control rats (n=3; * and **, P<0.05). […] An in vivo growth reversal analysis was also conducted. Following a 2 week delivery of CT-1 protein (6 μg/kg/hr) or PE (10 mg/kg/day) as the pathologic control in this case, animals were then assessed for cardiac structure/function at a 6 week follow-on period. […] Collectively, these studies support the contention that CT-1 elicits a reversible physiologic cardiac adaptive compensation.

SMILES: OO [H2O2, hydrogen peroxide]
cardiomyocyte viability decreased vs. control (cardiomyocytes; 1 h, 300 μM): 24% | decrease in viability vs. control (cardiomyocytes; 24 h): 70%

Mef2 activation after 24 hrs (Mef2): significant activation of Mef2 | STAT3 activation (STAT3): only minimal (if any) activation
SMILES: C=CCc1cccc(/C=N/NC(=O)CN2CCN(Cc3ccccc3)CC2)c1O [PAC-1, procaspase 3 activating compound 1, reference compound]
NFAT activity compared to baseline levels (NFAT): significant increase of NFAT activity | VEGF expression (immunofluorescence) [1]: less VEGF expression

SMILES: CC(C)NCC(O)c1ccc(O)c(O)c1 (stereo not drawn) [ISO, Isoproterenol, reference compound]
increase in the RVID/LVID ratio (rats): 24% | increase in RVLW thickness compared to control rats (rats; hCT1 6 μg/kg/hr, subcutaneous minipump): 32 % fold increase

SMILES: O=c1cc(N2CCOCC2)oc2c(-c3ccccc3)cccc12 [LY294002]
decrease in viability compared to cells treated only with hCT1/H2O2 (cardiomyocytes; pre-treatment with LY294002 50 μM before CT-1/H2O2 (FIG. 7C)): 46%
